Experimental data: ChEMBL document CHEMBL5303573, “Mapping human microbiome drug metabolism by gut bacteria and their genes” (Nature, 2019)

Tests used:
[1] = The drug is tested on Bifidobacterium ruminantium strain: fecal isolate for biotransformation. The drug concentrations were measured before and after a 12-h incubation by liquid-chromatography-coupled mass spectrometry (LC–MS); conditions: 2 µM
[2] = The drug is tested on Alistipes indistinctus strain: DSM22520 for biotransformation. The drug concentrations were measured before and after a 12-h incubation by liquid-chromatography-coupled mass spectrometry (LC–MS); conditions: 2 µM
[3] = The drug is tested on Bacteroides coprophilus strain: DSM18228 for biotransformation. The drug concentrations were measured before and after a 12-h incubation by liquid-chromatography-coupled mass spectrometry (LC–MS); conditions: 2 µM
[4] = The drug is tested on Bacteroides dorei strain: DSM17855 for biotransformation. The drug concentrations were measured before and after a 12-h incubation by liquid-chromatography-coupled mass spectrometry (LC–MS); conditions: phocaeicola dorei, 2 µM
[5] = The drug is tested on Bacteroides finegoldii strain: DSM17565 for biotransformation. The drug concentrations were measured before and after a 12-h incubation by liquid-chromatography-coupled mass spectrometry (LC–MS); conditions: 2 µM
[6] = The drug is tested on Bacteroides uniformis strain: ATCC8492 for biotransformation. The drug concentrations were measured before and after a 12-h incubation by liquid-chromatography-coupled mass spectrometry (LC–MS); conditions: 2 µM
[7] = The drug is tested on Bacteroides vulgatus strain: ATCC8482 for biotransformation. The drug concentrations were measured before and after a 12-h incubation by liquid-chromatography-coupled mass spectrometry (LC–MS); conditions: phocaeicola vulgatus, 2 µM
[8] = The drug is tested on Parabacteroides merdae strain: ATCC43184 for biotransformation. The drug concentrations were measured before and after a 12-h incubation by liquid-chromatography-coupled mass spectrometry (LC–MS); conditions: 2 µM
[9] = The drug is tested on Anaerococcus hydrogenalis strain: DSM7454 for biotransformation. The drug concentrations were measured before and after a 12-h incubation by liquid-chromatography-coupled mass spectrometry (LC–MS); conditions: 2 µM
[10] = The drug is tested on Blautia hansenii strain: DSM20583 for biotransformation. The drug concentrations were measured before and after a 12-h incubation by liquid-chromatography-coupled mass spectrometry (LC–MS); conditions: 2 µM
[11] = The drug is tested on Coprococcus comes strain: ATCC27758 for biotransformation. The drug concentrations were measured before and after a 12-h incubation by liquid-chromatography-coupled mass spectrometry (LC–MS); type: ADME; set-up: dose 2 uM, timepoint 0 vs 12 hours; conditions: 2 µM
[12] = bacteroides fragilis, 12 h, 2 µM
Description: The drug is tested on Bacteroides fragilis strain: DS-208 for biotransformation. The drug concentrations were measured before and after a 12-h incubation by liquid-chromatography-coupled mass spectrometry (LC–MS)

[13] = bacteroides thetaiotaomicron, 12 h, 2 µM
Description: The drug is tested on Bacteroides thetaiotaomicron strain: VPI-5482 for biotransformation. The drug concentrations were measured before and after a 12-h incubation by liquid-chromatography-coupled mass spectrometry (LC–MS)

[14] = bacteroides thetaiotaomicron, 12 h, 2 µM; remark: listed apart in the source
Description: The drug is tested on Bacteroides thetaiotaomicron strain: 7330 for biotransformation. The drug concentrations were measured before and after a 12-h incubation by liquid-chromatography-coupled mass spectrometry (LC–MS)

[15] = roseburia intestinalis, 12 h, 2 µM
Description: The drug is tested on Roseburia intestinalis strain: L1-82 for biotransformation. The drug concentrations were measured before and after a 12-h incubation by liquid-chromatography-coupled mass spectrometry (LC–MS)

[16] = The drug is tested on Clostridium ramosum strain: DSM1402 for biotransformation. The drug concentrations were measured before and after a 12-h incubation by liquid-chromatography-coupled mass spectrometry (LC–MS); conditions: thomasclavelia ramosa, 2 µM
[17] = The drug is tested on Escherichia coli strain: BW25113 for biotransformation. The drug concentrations were measured before and after a 12-h incubation by liquid-chromatography-coupled mass spectrometry (LC–MS); conditions: 2 µM
[18] = The drug is tested on Enterococcus faecalis strain: V583 for biotransformation. The drug concentrations were measured before and after a 12-h incubation by liquid-chromatography-coupled mass spectrometry (LC–MS); conditions: 2 µM
[19] = The drug is tested on Enterobacter cancerogenus strain: ATCC35316 for biotransformation. The drug concentrations were measured before and after a 12-h incubation by liquid-chromatography-coupled mass spectrometry (LC–MS); conditions: 2 µM

| SMILES | Bacterial Biotransformation [1] | Bacterial Biotransformation [2] | Bacterial Biotransformation [3] | Bacterial Biotransformation [4] | Bacterial Biotransformation [5] | Bacterial Biotransformation [6] | Bacterial Biotransformation [7] | Bacterial Biotransformation [8] | Bacterial Biotransformation [9] | Bacterial Biotransformation [10] | Bacterial Biotransformation [11] | Bacterial Biotransformation [12] | Bacterial Biotransformation [13] | Bacterial Biotransformation [14] | Bacterial Biotransformation [15] | Bacterial Biotransformation [16] | Bacterial Biotransformation [17] | Bacterial Biotransformation [18] | Bacterial Biotransformation [19] |
| --- | --- | --- | --- | --- | --- | --- | --- | --- | --- | --- | --- | --- | --- | --- | --- | --- | --- | --- | --- |
| C=CCc1ccccc1OCC(O)CNC(C)C (configuration not stated) [ALPRENOLOL] | Compound metabolized | Compound NOT metabolized | Compound NOT metabolized | Compound NOT metabolized | Compound NOT metabolized | Compound NOT metabolized | Compound NOT metabolized | Compound NOT metabolized | Compound NOT metabolized | Compound NOT metabolized | Compound NOT metabolized | Compound NOT metabolized | Compound NOT metabolized | Compound NOT metabolized | Compound NOT metabolized |  |  |  |  |
| CN1CCC[C@@H]1CCO[C@](C)(c1ccccc1)c1ccc(Cl)cc1.O=C(O)/C=C/C(=O)O [CLEMASTINE FUMARATE] |  | Compound NOT metabolized | Compound metabolized | Compound metabolized |  | Compound metabolized | Compound metabolized | Compound NOT metabolized | Compound NOT metabolized | Compound metabolized |  | Compound metabolized | Compound NOT metabolized | Compound metabolized | Compound metabolized | Compound NOT metabolized | Compound metabolized |  |  |
| CCC1(c2ccc(N)cc2)CCC(=O)NC1=O (configuration not stated) [AMINOGLUTETHIMIDE] |  |  | Compound NOT metabolized | Compound NOT metabolized | Compound NOT metabolized |  | Compound NOT metabolized | Compound NOT metabolized | Compound NOT metabolized | Compound NOT metabolized | Compound NOT metabolized | Compound NOT metabolized |  | Compound NOT metabolized | Compound NOT metabolized | Compound NOT metabolized | Compound NOT metabolized | Compound NOT metabolized | Compound NOT metabolized |
| COC(=O)[C@H](c1ccccc1Cl)N1CCc2sccc2C1.O=S(=O)(O)O [CLOPIDOGREL BISULFATE] |  | Compound NOT metabolized | Compound metabolized | Compound metabolized |  | Compound metabolized | Compound metabolized | Compound metabolized | Compound NOT metabolized | Compound metabolized | Compound NOT metabolized | Compound metabolized | Compound metabolized | Compound metabolized | Compound NOT metabolized |  | Compound NOT metabolized | Compound NOT metabolized | Compound NOT metabolized |
| COc1cc2c(c(OC)c1OC)-c1ccc(OC)c(=O)cc1[C@@H](NC(C)=O)CC2 [COLCHICINE] | Compound NOT metabolized | Compound NOT metabolized | Compound NOT metabolized | Compound metabolized |  | Compound metabolized | Compound metabolized | Compound NOT metabolized | Compound NOT metabolized | Compound metabolized | Compound NOT metabolized | Compound metabolized | Compound metabolized | Compound metabolized | Compound metabolized | Compound NOT metabolized |  | Compound NOT metabolized |  |
| Cc1nc2n(c(=O)c1CCN1CCC(c3noc4cc(F)ccc34)CC1)CCCC2 [RISPERIDONE] |  | Compound metabolized | Compound NOT metabolized |  | Compound NOT metabolized | Compound NOT metabolized | Compound NOT metabolized | Compound NOT metabolized | Compound metabolized | Compound metabolized | Compound metabolized | Compound metabolized | Compound NOT metabolized | Compound NOT metabolized | Compound metabolized |  | Compound NOT metabolized | Compound metabolized | Compound metabolized |
| C[N+]12CCC(CC1)C(OC(=O)C(O)(c1ccccc1)c1ccccc1)C2.[Br-] (configuration not stated) [CLIDINIUM BROMIDE] |  |  | Compound NOT metabolized | Compound NOT metabolized | Compound NOT metabolized | Compound NOT metabolized |  | Compound NOT metabolized | Compound NOT metabolized | Compound NOT metabolized | Compound NOT metabolized | Compound NOT metabolized | Compound NOT metabolized | Compound NOT metabolized | Compound NOT metabolized |  | Compound NOT metabolized | Compound NOT metabolized |  |
| CN(C)CCOC(c1ccc(Cl)cc1)c1ccccn1.O=C(O)/C=C\C(=O)O (configuration not stated) [CARBINOXAMINE MALEATE] |  |  | Compound NOT metabolized | Compound NOT metabolized | Compound NOT metabolized | Compound NOT metabolized | Compound NOT metabolized | Compound NOT metabolized | Compound NOT metabolized | Compound NOT metabolized | Compound NOT metabolized | Compound NOT metabolized | Compound NOT metabolized | Compound NOT metabolized | Compound NOT metabolized | Compound NOT metabolized |  | Compound NOT metabolized | Compound NOT metabolized |
| NC12CC3CC(CC(C3)C1)C2 [AMANTADINE] | Compound metabolized |  | Compound NOT metabolized | Compound NOT metabolized | Compound NOT metabolized | Compound metabolized | Compound NOT metabolized | Compound NOT metabolized | Compound NOT metabolized | Compound NOT metabolized | Compound NOT metabolized | Compound metabolized | Compound NOT metabolized | Compound metabolized | Compound NOT metabolized | Compound NOT metabolized |  | Compound NOT metabolized | Compound NOT metabolized |
| CCN1CCCC1CNC(=O)c1cc(S(=O)(=O)CC)c(N)cc1OC (configuration not stated) [AMISULPRIDE] | Compound NOT metabolized | Compound NOT metabolized | Compound NOT metabolized | Compound NOT metabolized | Compound NOT metabolized | Compound NOT metabolized | Compound NOT metabolized | Compound NOT metabolized | Compound NOT metabolized |  | Compound NOT metabolized | Compound NOT metabolized | Compound NOT metabolized | Compound NOT metabolized | Compound NOT metabolized | Compound NOT metabolized | Compound NOT metabolized | Compound NOT metabolized | Compound NOT metabolized |
